Laboratory results published in PubChem BioAssay (NCI).
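Test compounds were applied to cells in 96-well plates for 48 hours at 5 doses. GI50 is the concentration that inhibits growth by half. TGI is the concentration that stops growth completely.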

Columns and labels:
Assay in all cases: NCI-60 cell line screen, 48 h
[1] = test system: SK-MEL-2 melanoma
[2] = test system: CCRF-CEM leukemia
[3] = test system: MOLT-4 leukemia
[4] = test system: HOP-92 NSCLC
[5] = test system: UACC-257 melanoma
[6] = test system: RXF 393 renal
[7] = test system: SR leukemia
[8] = test system: NCI-H23 lung
[9] = test system: OVCAR-8 ovarian
[10] = test system: HCT-116 colon
[11] = test system: SK-OV-3 ovarian
[12] = test system: A549 NSCLC
[13] = test system: HL-60(TB) leukemia
[14] = test system: SNB-19 CNS
[15] = test system: MCF7 breast
[16] = test system: IGROV1 ovarian
[17] = test system: NCI/ADR-RES ovarian
[18] = test system: CAKI-1 renal
[19] = test system: SF-268 CNS
[20] = test system: HOP-62 NSCLC
[21] = test system: A498 renal
[22] = test system: HCC-2998 colon
[23] = test system: 786-0 renal
[24] = test system: TK-10 renal
[25] = test system: MDA-MB-435
[26] = test system: SN12C renal
[27] = test system: OVCAR-3 ovarian
[28] = test system: EKVX NSCLC
[29] = test system: M14 melanoma
[30] = test system: NCI-H460 lung
[31] = test system: HT29 colon
[32] = test system: U251 CNS
[33] = test system: UACC-62 melanoma
[34] = test system: MDA-MB-231 breast
[35] = test system: MALME-3M melanoma
[36] = test system: SF-539 CNS
[37] = test system: HS 578T breast
[38] = test system: HCT-15 colon
[39] = test system: SF-295 CNS
[40] = test system: NCI-H226 lung
[41] = test system: PC-3 prostate
[42] = test system: T-47D breast
[43] = test system: RPMI-8226 leukemia
[44] = test system: ACHN renal
[45] = test system: SW-620 colon
[46] = test system: OVCAR-5 ovarian
[47] = test system: K-562 leukemia
[48] = test system: SK-MEL-5 melanoma
[49] = test system: KM12 colon
[50] = test system: BT-549 breast
[51] = test system: DU-145 prostate
[52] = test system: COLO 205 colon
[53] = test system: UO-31 renal
[54] = test system: LOX IMVI melanoma
[55] = test system: OVCAR-4 ovarian
[56] = test system: SK-MEL-28 melanoma
[57] = test system: NCI-H522 lung
[58] = test system: SNB-75 CNS

`C#CC#CC#CC#CC#CC#CC#CC#CC[C@@H]1OC[C@H](COC(=O)O[C@@H](C(=O)O[C@H]2C[C@@]3(O)[C@@H](OC(=O)c4ccccc4)[C@@H]4[C@]5(OC(C)=O)CO[C@@H]5C[C@H](O)[C@@]4(C)C(=O)[C@H](OC(C)=O)C(=C2C)C3(C)C)[C@@H](NC(=O)c2ccccc2)c2ccccc2)O1` was tested, and the GI50 [1] was 5.65 µM, the TGI [1] was > 25 µM and the GI50 [2] was 1.25 µM. For the same molecule, the TGI [2] was > 25 µM, the GI50 [3] was 1.85 µM and the TGI [3] was > 25 µM. For the same molecule, the GI50 [4] was > 18.5 µM, the TGI [4] was > 25 µM and the GI50 [5] was 6.61 µM. The TGI [5] was > 25 µM, the GI50 [6] was > 5.16 µM and the TGI [6] was > 25 µM. The GI50 [7] was 0.862 µM, the TGI [7] was > 25 µM and the GI50 [8] was 2.24 µM. For the same molecule, the TGI [8] was > 25 µM, the GI50 [9] was 1.57 µM and the TGI [9] was > 25 µM. The GI50 [10] was 0.596 µM, the TGI [10] was > 25 µM and the GI50 [11] was 3.32 µM. The TGI [11] was > 25 µM, the GI50 [12] was 1.42 µM and the TGI [12] was > 25 µM. The GI50 [13] was 0.819 µM, the TGI [13] was > 18.7 µM and the GI50 [14] was 3.88 µM. For the same molecule, the TGI [14] was > 25 µM, the GI50 [15] was 0.348 µM and the TGI [15] was > 25 µM. The GI50 [16] was 1.29 µM, the TGI [16] was > 25 µM and the GI50 [17] was > 25 µM. The TGI [17] was > 25 µM, the GI50 [18] was 5.85 µM and the TGI [18] was > 25 µM. The GI50 [19] was 1.93 µM, the TGI [19] was > 25 µM and the GI50 [20] was 5.13 µM. For the same molecule, the TGI [20] was > 25 µM, the GI50 [21] was 1.39 µM and the TGI [21] was > 23.5 µM. For the same molecule, the GI50 [22] was 1.26 µM, the TGI [22] was > 25 µM and the GI50 [23] was > 25 µM. The TGI [23] was > 25 µM, the GI50 [24] was > 25 µM and the TGI [24] was > 25 µM. It also gave a GI50 [25] of 0.0987 µM, a TGI [25] of 0.398 µM and a GI50 [26] of 4.36 µM. The TGI [26] was > 25 µM, the GI50 [27] was 0.682 µM and the TGI [27] was > 25 µM. For the same molecule, the GI50 [28] was > 25 µM, the TGI [28] was > 25 µM and the GI50 [29] was 1.09 µM. For the same molecule, the TGI [29] was 24.9 µM, the GI50 [30] was 0.185 µM and the TGI [30] was > 25 µM. For the same molecule, the GI50 [31] was 0.355 µM, the TGI [31] was > 25 µM and the GI50 [32] was 1.42 µM. The TGI [32] was > 25 µM, the GI50 [33] was 5.58 µM and the TGI [33] was > 25 µM. The GI50 [34] was 4.17 µM, the TGI [34] was > 25 µM and the GI50 [35] was 2.07 µM. The TGI [35] was > 25 µM, the GI50 [36] was 1.2 µM and the TGI [36] was > 25 µM. For the same molecule, the GI50 [37] was 0.673 µM, the TGI [37] was > 25 µM and the GI50 [38] was > 25 µM. For the same molecule, the TGI [38] was > 25 µM, the TGI [39] was > 25 µM and the GI50 [40] was > 21.8 µM. The TGI [40] was > 25 µM, the GI50 [41] was 1.58 µM and the TGI [41] was > 25 µM. The GI50 [42] was 1.07 µM, the TGI [42] was > 25 µM and the GI50 [43] was 0.436 µM. For the same molecule, the TGI [43] was > 25 µM, the GI50 [44] was > 25 µM and the TGI [44] was > 25 µM. For the same molecule, the GI50 [45] was 0.819 µM, the TGI [45] was > 25 µM and the GI50 [46] was 1.58 µM. For the same molecule, the TGI [46] was > 25 µM, the GI50 [47] was 1.04 µM and the TGI [47] was > 25 µM. The GI50 [48] was 3.13 µM, the TGI [48] was > 25 µM and the GI50 [49] was 0.683 µM. The TGI [49] was > 25 µM, the GI50 [50] was 3.71 µM and the TGI [50] was > 25 µM. For the same molecule, the GI50 [51] was 0.681 µM, the TGI [51] was > 25 µM and the GI50 [52] was 0.665 µM. The TGI [52] was > 10.8 µM, the GI50 [53] was > 25 µM and the TGI [53] was > 25 µM. The GI50 [54] was 0.708 µM, the TGI [54] was > 25 µM and the GI50 [55] was > 21 µM. The TGI [55] was > 25 µM, the GI50 [56] was 3.88 µM and the TGI [56] was > 25 µM. The GI50 [57] was 1.81 µM, the TGI [57] was > 25 µM and the GI50 [58] was 0.114 µM. For the same molecule, the TGI [58] was 1.48 µM.
